Measurements from the NIST ThermoML archive (doi:10.1016/j.jct.2018.04.004).

Assay: xn = mol fraction of the nth substance listed
Conditions: Liquid, pressure decay method, x1 = 0

## FC(F)CC(F)(F)F [1,1,1,3,3-pentafluoropropane] + CCCCCC[n+]1ccn(C)c1.O=S(=O)([N-]S(=O)(=O)C(F)(F)F)C(F)(F)F
303.15 K, 50.4 kPa
  binary diffusion coefficient: 8.4e-11 m2/s
313.15 K, 63.9 kPa
  binary diffusion coefficient: 1.22e-10 m2/s
323.15 K, 69.8 kPa
  binary diffusion coefficient: 2.06e-10 m2/s
333.15 K, 74.9 kPa
  binary diffusion coefficient: 2.75e-10 m2/s
343.15 K, 84.6 kPa
  binary diffusion coefficient: 3.47e-10 m2/s

## FC(F)(F)CC(F)(F)F [1,1,1,3,3,3-hexafluoropropane] + CCCCCC[n+]1ccn(C)c1.O=S(=O)([N-]S(=O)(=O)C(F)(F)F)C(F)(F)F
303.15 K, 86 kPa
  binary diffusion coefficient: 1.55e-10 m2/s
313.15 K, 85.5 kPa
  binary diffusion coefficient: 2.4e-10 m2/s
323.15 K, 95.7 kPa
  binary diffusion coefficient: 4.09e-10 m2/s
333.15 K, 90.1 kPa
  binary diffusion coefficient: 5.96e-10 m2/s
343.15 K, 90.7 kPa
  binary diffusion coefficient: 8.42e-10 m2/s

## FC(C(F)(F)F)C(F)(F)F [1,1,1,2,3,3,3-heptafluoropropane] + CCCCCC[n+]1ccn(C)c1.O=S(=O)([N-]S(=O)(=O)C(F)(F)F)C(F)(F)F
303.15 K, 99.7 kPa
  binary diffusion coefficient: 2.72e-10 m2/s
313.15 K, 99.6 kPa
  binary diffusion coefficient: 3.5e-10 m2/s
323.15 K, 97.1 kPa
  binary diffusion coefficient: 5.28e-10 m2/s
333.15 K, 105 kPa
  binary diffusion coefficient: 9.6e-10 m2/s
343.15 K, 104.6 kPa
  binary diffusion coefficient: 1.26e-09 m2/s
